Measured values as given in paper PMC9782626, “Copper(II) Complexes of 5–Fluoro–Salicylaldehyde: Synthesis, Characterization, Antioxidant Properties, Interaction with DNA and Serum Albumins” (Molecules, 2022).

How the values were obtained:
[1] = DPPH radical scavenging assay; type: biochemical; conditions: compound 0.1 mM
From the text: (§1) For the above reasons, the antioxidant ability of 5–F–saloH and Cu(II) complexes 1–5 has been evaluated via their scavenging activity towards DPPH and ABTS radicals, as well as the ability to reduce H2O2, and in comparison with that of well-known antioxidant agents such as nordihydroguaiaretic acid (NDGA), butylated hydroxytoluene (ΒHΤ), 6–hydroxy–2,5,7,8–tetramethylchromane–2–carboxylic acid (trolox) and L–ascorbic acid (these are the most commonly used standard reference antioxidant agents). The DPPH-radical assay was developed in the 1950s and this method has been used to assess the antioxidant capacity of several metal complexes. The DPPH–scavenging ability of compounds has often been related to their ability to prevent ageing, cancer and inflammation. The ability of a compound to scavenge the cationic ABTS radicals (ABTS^+●) has been considered a measure of its total antioxidant activity. Further, hydrogen peroxide has the ability to penetrate biological membranes and, although it is not very reactive itself, it can sometimes be toxic since it may give rise to hydroxyl radicals in cells. For this reason, the removal of H2O2 is very important for the protection of living systems. When a compound is incubated with H2O2 using a peroxidase assay system, the loss of H2O2 can be measured.
(§2) S1 Antioxidant activity assay
(§3) The antioxidant activity of the compounds was evaluated via their ability to scavenge in vitro free radicals such as DPPH and ABTS and to reduce H 2O2. All the experiments were carried out at least in triplicate and the standard deviation of absorbance was less than 10% of the mean.
S1.1 Determination of the reducing activity of the radical DPPH
To an ethanolic solution of DPPH (0.1 mM) an equal volume solution of the compounds (0.1 mM) in ethanol was added. Absolute ethanol was also used as control solution. The absorbance at 517 nm was recorded at room temperature after 30 and 60 min, in order to examine the possible existence of a potential time-dependence of the DPPH radical scavenging act iv ity [S 1]. The DPPH -scavenging activity of the compounds was expressed as the percentage reduction of the absorbance values of the initial DPPH solution ( DPPH%). N DGA and BHT were used as reference comp ounds. […]

[2] = ABTS radical cation scavenging assay; type: biochemical; conditions: compound 0.1 mM, 1 min
From the text: as §1, §2
The antioxidant activity of the compounds was evaluated via their ability to scavenge in vitro free radicals such as DPPH and ABTS and to reduce H 2O2. All the experiments were carried out at least in triplicate and the standard deviation of absorbance was less than 10% of the mean. […]
S1.2 Assay of radical cation ABTS-scavengin g activity
The ABTS assay was performed to determine the activity of the compounds to scavenge the radical cation ABTS. Initially, a water solution of ABTS was prepared (2 mM). ABTS radical cation (ABTS+·) was produced by the reaction of ABTS stock solution with potassium persulfate (0.17 mM) and the mixture was stored in the dark at room temperature for 12-16 h before its use. The ABTS was oxidized incompletely because the stoichiometric reaction ratio of ABTS and potassium persulfate is 1:0.5. The absorbance became maximal and stable only after more than 6 h of reaction although the oxidation of the ABTS started immediately. The radical was stable in this form for more than 2 days when allowed to stand in the dark at room temperature. Afterwards, the ABTS+· solution was diluted in ethanol to an absorbance of 0.70 at 734 nm and 10 μL of diluted compounds or standards (0.1 mM) in DMSO were added. The absorbance was recorded out exactly 1 min after init ial m ix in g [S 1]. The ABTS radical scavenging act ivit y was expressed as the percentage inhibition of the absorbance of the initial ABTS solution (ABTS%). Trolox was used as an appropriate standard. […]

[3] = Reduction of hydrogen peroxide; type: biochemical; conditions: compound 0.1 mM, 10 min, pH 7.4
From the text: as §1, §2, §3
S1.1 Determination of the reducing activity of the radical DPPH […]
S1.3 Reduction of hydrogen peroxide
The ability of the com pounds to reduce hydrogen peroxide (H2O2) was est imated according to the method descr ibed in the literature [S2]. The reaction mixture contained 20 μL of each of the tested compounds (0.1 mM) and 5 μL H2O 2 solution (40 mM) in phosphate buffer (50 mM, pH = 7.4). The absorbance was measure d at 230 nm after 10 min.
The antioxidant activity (reduction of hydrogen peroxide) of the compounds wa s […]
expressed as the percentage decrease of t he init ial H 2O2 solution (H 2O2%). L-ascor b ic ac id (or vitamin C) was use d as a standard. […]
[DNA] = [DNA] + 1 (eq. S1) […]
where [DNA] is the concentration of DNA in base pa irs, εA = Aobsd/[compound ], εf = the extinction coefficient for the free compound and ε b = the extinction coefficient for the compound in the fully bound form. Kb is given by the ratio of slope to the y intercept in plots [DNA]/(εA-εf) versus[DNA].
S2.2CT DNA -binding studie s by viscosity measurements
The interaction of compounds with DNA has been evaluated via the study of the CT DNA viscosity ([DNA] = 0.1 mΜ) in a buffer solution (150 mM NaCl and 15 mM trisodium citrate at pH 7.0) in the presence of increasing amount of complexes (up to the value of r = 0.36). The obtained data are presented as (η/η 0)1/3 versus r, where η is the viscosity of DNA in the presence of the compound, and η0 is the viscosity of DNA alone in buffer solution.
S2.3 EB -displa cement studie s
The competition of the complexes with EB was investigated by fluorescence emission spectroscopy in order to examine whether the compounds can displace EB from its DNA-EB conjugate. The CT DNA-EB complex was formed by pre-treating 20 μM EB and 26 μM CT DNA in buffer (150 mM NaCl and 15 mM trisodium citrate at pH = 7.0).
The possible displacement of EB by the compounds and su bseq uently t he ir intercalating effect was studied by the stepwise addition of a certain amount of the solution of each

Solubility in solvents = type: physicochemical

Row | Compound | DPPH% (30 min), % DPPH–scavenging ability [1] | DPPH% (60 min), % DPPH–scavenging ability [1] | ABTS%, % ABTS–scavenging activity [2] | H2O2%, H2O2–reducing activity [3] | Solubility in DMSO and DMF (Solubility in solvents) | Solubility in MeOH (Solubility in solvents)
1 | O=Cc1cc(F)ccc1[O-].O=[N+]([O-])[O-].[Cu+2].c1cnc2c(c1)ccc1cccnc12 [Complex 4, [Cu(5–F–salo)(phen)(NO3)]] | 6.15 ± 0.33% | 4.64 ± 0.10% | 48.14 ± 0.35% | 25.90 ± 0.76% | soluble | 
2 | O=Cc1cc(F)ccc1[O-].[Cl-].[Cu+2].c1ccc(Nc2ccccn2)nc1 [Complex 2, [Cu(5–F–salo)(bipyam)Cl]] | 7.54 ± 0.20% | 7.42 ± 0.50% | 48.89 ± 0.38% | 99.69 ± 0.29% | soluble | partially soluble
3 | CO.Cc1ccc2ccc3ccc(C)nc3c2n1.O=Cc1cc(F)ccc1[O-].[Cl-].[Cu+2] [Complex 3, [Cu(5–F–salo)(neoc)Cl].CH3OH] | 7.42 ± 0.54% |  | 46.03 ± 0.60% | 26.10 ± 0.66% | soluble | partially soluble
4 | O=Cc1cc(F)ccc1[O-].O=[N+]([O-])[O-].[Cu+2].c1ccc(-c2ccccn2)nc1 [Complex 5, [Cu(5–F–salo)(bipy)(NO3)]] | 7.19 ± 0.26% | 4.06 ± 0.20% | 7.36 ± 0.08% | 69.21 ± 1.10% |  | 
5 | O=Cc1cc(F)ccc1[O-].O=Cc1cc(F)ccc1[O-].[Cu+2] [Complex 1, [Cu(5–F–salo)2]] | 9.05 ± 0.54% | 10.79 ± 0.20% | 78.89 ± 0.18% | 71.61 ± 0.35% | soluble | 
